These results are taken from patent US20200392158A1, “INHIBITORS OF LEUCINE RICH REPEAT KINASE 2” (GLAXOSMITHKLINE INTELLECTUAL PROPERTY DEVELOPMENT LIMITED, priority 2017, published 2020).

This assay deals with T1, full length G2019 human LRRK2 (Homo sapiens, UniProt Q5S007, R50H).
T1 construct: made in house; host or cells: HEK293 6E cells transduced with BacMam virus (virus generated in Sf9 cells)
T1 sequence (Q5S007 with tags, fused parts or gaps R50H): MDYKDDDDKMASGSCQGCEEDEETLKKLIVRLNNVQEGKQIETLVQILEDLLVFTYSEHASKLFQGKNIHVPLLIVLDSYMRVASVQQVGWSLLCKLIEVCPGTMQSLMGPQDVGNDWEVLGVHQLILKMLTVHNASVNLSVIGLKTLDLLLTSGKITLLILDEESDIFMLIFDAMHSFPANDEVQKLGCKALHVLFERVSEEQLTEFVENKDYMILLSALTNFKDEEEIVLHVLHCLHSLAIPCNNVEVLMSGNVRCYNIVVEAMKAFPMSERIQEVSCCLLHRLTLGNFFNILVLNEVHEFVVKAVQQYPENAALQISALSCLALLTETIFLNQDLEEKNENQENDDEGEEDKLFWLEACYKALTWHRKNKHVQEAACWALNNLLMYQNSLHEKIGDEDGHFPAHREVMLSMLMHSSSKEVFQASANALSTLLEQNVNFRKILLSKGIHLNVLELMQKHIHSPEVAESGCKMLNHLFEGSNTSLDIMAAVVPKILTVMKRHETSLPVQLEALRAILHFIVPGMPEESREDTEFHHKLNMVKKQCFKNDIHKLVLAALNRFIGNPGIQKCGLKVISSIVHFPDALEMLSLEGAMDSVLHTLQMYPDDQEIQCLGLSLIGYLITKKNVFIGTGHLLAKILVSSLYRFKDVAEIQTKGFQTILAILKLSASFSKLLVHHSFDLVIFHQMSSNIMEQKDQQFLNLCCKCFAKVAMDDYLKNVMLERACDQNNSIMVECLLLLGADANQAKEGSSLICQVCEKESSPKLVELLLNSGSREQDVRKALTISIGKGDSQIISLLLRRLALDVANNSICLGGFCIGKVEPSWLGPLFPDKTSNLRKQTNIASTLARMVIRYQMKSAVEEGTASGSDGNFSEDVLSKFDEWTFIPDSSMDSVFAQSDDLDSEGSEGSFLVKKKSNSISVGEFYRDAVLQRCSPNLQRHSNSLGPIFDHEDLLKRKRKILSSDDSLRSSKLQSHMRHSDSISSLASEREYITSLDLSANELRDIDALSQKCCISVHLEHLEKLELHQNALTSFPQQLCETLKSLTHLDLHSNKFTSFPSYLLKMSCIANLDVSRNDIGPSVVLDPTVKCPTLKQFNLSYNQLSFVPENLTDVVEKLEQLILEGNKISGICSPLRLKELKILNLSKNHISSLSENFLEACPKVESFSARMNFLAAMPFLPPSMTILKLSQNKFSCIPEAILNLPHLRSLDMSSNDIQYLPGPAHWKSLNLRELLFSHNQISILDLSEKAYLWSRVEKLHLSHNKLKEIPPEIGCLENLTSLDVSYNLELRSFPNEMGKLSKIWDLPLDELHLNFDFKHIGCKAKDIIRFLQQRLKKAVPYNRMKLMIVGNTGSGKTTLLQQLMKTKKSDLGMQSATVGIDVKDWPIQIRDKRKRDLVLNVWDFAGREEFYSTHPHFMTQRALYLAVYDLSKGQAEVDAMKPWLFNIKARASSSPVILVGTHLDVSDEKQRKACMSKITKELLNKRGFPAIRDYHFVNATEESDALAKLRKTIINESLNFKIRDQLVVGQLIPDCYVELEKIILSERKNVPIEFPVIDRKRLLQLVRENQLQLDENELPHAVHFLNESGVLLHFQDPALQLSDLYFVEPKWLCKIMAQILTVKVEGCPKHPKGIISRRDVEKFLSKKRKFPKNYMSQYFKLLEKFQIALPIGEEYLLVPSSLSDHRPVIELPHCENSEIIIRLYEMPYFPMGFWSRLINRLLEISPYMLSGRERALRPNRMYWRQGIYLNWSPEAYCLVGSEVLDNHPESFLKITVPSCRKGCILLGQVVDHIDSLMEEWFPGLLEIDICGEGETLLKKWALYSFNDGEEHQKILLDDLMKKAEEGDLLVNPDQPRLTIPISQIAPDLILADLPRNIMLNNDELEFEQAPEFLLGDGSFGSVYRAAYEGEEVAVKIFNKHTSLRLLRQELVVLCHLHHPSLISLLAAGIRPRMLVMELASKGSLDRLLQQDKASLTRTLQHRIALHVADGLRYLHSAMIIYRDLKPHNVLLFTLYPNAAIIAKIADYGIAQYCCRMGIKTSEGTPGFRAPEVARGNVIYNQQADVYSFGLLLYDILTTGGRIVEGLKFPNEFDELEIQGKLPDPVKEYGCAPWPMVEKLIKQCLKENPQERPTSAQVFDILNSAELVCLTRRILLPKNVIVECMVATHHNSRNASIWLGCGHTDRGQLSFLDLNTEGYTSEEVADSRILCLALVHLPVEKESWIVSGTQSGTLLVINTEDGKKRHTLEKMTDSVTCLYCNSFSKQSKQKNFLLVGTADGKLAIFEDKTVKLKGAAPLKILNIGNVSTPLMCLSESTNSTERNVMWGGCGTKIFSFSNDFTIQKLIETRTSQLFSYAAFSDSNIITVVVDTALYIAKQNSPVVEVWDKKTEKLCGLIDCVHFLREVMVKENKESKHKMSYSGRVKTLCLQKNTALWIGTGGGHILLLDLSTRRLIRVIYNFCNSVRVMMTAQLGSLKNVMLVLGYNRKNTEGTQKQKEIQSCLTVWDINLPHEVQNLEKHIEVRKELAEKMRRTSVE
Put plainly: Full length G2019 human LRRK2 inhibition mass spectrometry assay. Type of assay: biochemical. The settings on record: LRRKtide to phospho-LRRKtide conversion, RapidFire MS, 2 mM ATP. As for the experimental part: a. Full Length G2019 Human LRRK2 Inhibition Mass Spectrometry Assay
This assay for Leucine Rich Repeat Kinase 2 (LRRK2) inhibition is based on the direct measurement of the peptide ‘LRRKtide’ (LRRKtide: RLGRDKYKT*LRQIRQ and “*” refers to the site of phosphorylation.) and phosphorylated ‘LRRKtide’ using a high throughput Rapid Fire mass spectrometry assay. Inhibitors are compounds that reduce the conversion of LRRKtide to phospho-LRRKtide.
• 1) Compounds were dissolved in 100% DMSO at a concentration of 10 mM, and 11-point dose response curves generated using a 1 in 4 serial dilution in DMSO. 100 nL of this dilution series was then added to a 384 well, v bottom polypropylene plate (Greiner 781280), excluding columns 6 and 18. 100 nL of DMSO were added to column 6 to serve as the high control, while column 18 served as the low control containing assay buffer in place of the LRRK2 protein. Assay dilution gave a top final assay concentration of test compound of […] • 2) 5 μL of ‘enzyme solution’ containing 2× final assay concentration of purified recombinant Full length Flag-LRRK2 in assay buffer (50 mM Hepes, pH 7.2, 10 mM MgCl2, 150 mM NaCl, 5% glycerol, 0.0025% Triton X-100 and 1 mM DTT) were added to all wells using a Multidrop Combi dispenser (ThermoFisher Scientifiec), giving a final assay concentration of 25 nM LRRK2 enzyme (final concentration may vary depending on specific activity of different enzyme batches). • 3) 5 μL of substrate solution containing 50 μM LRRKtide peptide substrate and […] was added to all wells of the plate using a Multidrop Combi dispenser giving a final assay concentration of 25 μM LRRKtide peptide and 2 mM ATP. Test plates were then incubated for 1 hour at room temperature. (Incubation may vary depending on rate and linearity of reaction with different enzyme batches). • 4) 50 μl of 1% formic acid in laboratory grade water was added to all wells to quench the reaction, and plates were heat-sealed prior to centrifugation at 1348×g for 10 minutes. Test plates were then analysed on an Agilent RapidFire High Throughput solid phase extraction system coupled to AB Sciex API 4000 triple quadropole mass spectrometer with the following setting:
• Sip Height=2 mm, Aspirate=500 ms, Load time=3000 ms, Elution time=3000 ms, Requilibration=500 ms. • Flow rates: pump 1=1.5 mL/min, pump 2 1.25 mL/min pump 3=0.8 mL/min
Mass Spectrometer Settings: • LRRKtide Detection settings: Q1 mass 644.8 Da, Q3 mass 638.8, declustering potential 76 volts, collision energy 37 volts, CXP 34 volts. • Phospho-LRRKtide Detection settings: Q1 mass 671.4 Da, Q3 mass 638.8, Declustering potential 76 volts, Collision energy 37 volts, CXP 34 volts. • A C4 cartridge was used and running buffers were: A (aqueous) 0.1% formic acid in water B (organic) 0.1% formic acid, 80% acetonitrile, 20% water. • Collision gas: 12, Curtain gas: 25, Ion Source gas (1): 60, Ion Source gas (2): 60, Ion Spray Voltage: 5500, Temperature: 600, Interface Heater: ON. • Resolution Q1: low, Resolution Q3: low. • 5) Data were analysed using ActivityBase software (IDBS). A percent conversion from LRRKtide to Phospho-LRRKtide was calculated using the following formula:
% conversion=(Phospho-LRRKtide product peak area/(Phospho-LRRKtide product peak area+LRRKtide substrate peak area))*100 • A logistic 4 parameter curve fit was applied, using the following formula,
[formula] • Where x is the concentration of test sample, y is inhibition (%), a is the minimum, b is the Hill slope, c is the IC50 and d is the maximum. From this, the pIC50 was derived (−log IC50).
One may read the IC50 as the concentration needed to halve the response being measured. Higher therefore signals weaker potency. Regarding `COC1CNc2nc(ncc2Cl)Nc2c(nn(C3CC(C)OC(C)C3)c2C)OC1` (single isomer, unassigned) [E199, 14-Chloro-5-(2,6-dimethyloxan-4-yl)-10-methoxy-4-methyl-8-oxa-2,5,6,12,16,17-hexaazatricyclo[11.3.1.0^3,7] heptadeca-1(16),3,6,13(17),14-pentaene], the half-inhibitory concentration (IC50) is ≤ 10 µM.

As to `CCC1CCOc2nn(C3COC3)c(C)c2Nc2ncc(Cl)c(n2)N1` (single isomer, unassigned) [E319, 14-Chloro-11-ethyl-4-methyl-5-(oxetan-3-yl)-8-oxa-2,5,6,12,16,17-hexaazatricyclo[11.3.1.0^3,7]heptadeca-1(16), 3,6,13(17),14-pentaene], the half-inhibitory concentration (IC50) is ≤ 10 µM.

In the case of `Cc1c2c(nn1CCN1C[C@H]3C[C@@H]1CO3)OCCC(C)Nc1nc(ncc1Cl)N2` (single isomer, unassigned) [E209], the 50% inhibitory concentration (IC50) was ≤ 10 µM.

Regarding `Cc1c2c(nn1C1CCOCC1F)OCCC(C)Nc1nc(ncc1Cl)N2` (single isomer, unassigned) [E28, 14-chloro-5-(3-fluorooxan-4-yl)-4,11-dimethyl-8-oxa-2,5,6,12,16,17-hexaazatricyclo [11.3.1.0^3,7]heptadeca-1(17),3,6,13,15-pentaene], the IC50 was ≤ 0.1 µM.

Regarding `Clc1cnc2nc1NCCCOc1nn(C3CCOC3)c(Cl)c1N2` (single isomer, unassigned) [E146, 4,14-Dichloro-5-(oxolan-3-yl)-8-oxa-2,5,6,12, 16,17-hexaaza tricyclo[11.3.1.0^3,7]heptadeca-1(16),3,6,13(17), 14-pentaene], the IC50 is ≤ 0.1 µM.

As for `Cc1c2c(nn1CCN1C[C@H]3C[C@@H]1CO3)OCCC(C)Nc1nc(ncc1Cl)N2` (single isomer, unassigned) [E210], the IC50 was ≤ 0.1 µM.

For the compound `CCN1CCCOc2nn(C3CCOCC3)c(C)c2Nc2ncc(Cl)c1n2` [E360, 14-Chloro-12-ethyl-4-methyl-5-(oxan-4-yl)-8-oxa-2,5,6,12,16,17-hexaazatricyclo[11.3.1.0^3,7]heptadeca-1(16),3,6,13(17),14-pentaene], the 50% inhibitory concentration (IC50) was ≤ 10 µM.

`Cc1c2c(nn1C(C)C1CCOCC1)OCCC(C)Nc1nc(ncc1Cl)N2` (single isomer, unassigned) [E184, 14-Chloro-4,11-dimethyl-5-[1-(oxan-4-yl)ethyl]-8-oxa-2,5,6,12,16,17-hexaazatricyclo[11.3.1.0^3,7]heptadeca-1(16),3,6,13(17),14-pentaene]: the IC50 is ≤ 0.1 µM.

Turning to `COC1CNc2nc(ncc2Cl)Nc2c(nn(C3COC3)c2C)OC1` (single isomer, unassigned) [E271, 14-Chloro-10-methoxy-4-methyl-5-(oxetan-3-yl)-8-oxa-2,5,6,12,16,17-hexaazatricyclo[11.3.1.0^3,7]heptadeca-1(16),3,6,13(17),14-pentaene], the IC50 is ≤ 10 µM.

As for `Cc1c2c(nn1C1CCCN(C3COC3)C1)OCC[C@@H](C)Nc1nc(ncc1Cl)N2` (single isomer, unassigned) [E68], the IC50 is ≤ 0.1 µM.

For `Cc1c2c(nn1C1CCOCC1)OCC[C@@H](C(C)C)Nc1nc(ncc1Cl)N2` [E298, (11S)-14-Chloro-4-methyl-5-(oxan-4-yl)-11-(propan-2-yl)-8-oxa-2,5,6,12,16,17-hexaazatricyclo[11.3.1.0^3,7]heptadeca-1(16),3,6,13(17),14-pentaene], the IC50 is ≤ 0.1 µM.

Regarding `COc1cnc2nc1N[C@H](C)CCOc1nn(C3CCOCC3)c(C)c1N2` [E294, (11R)-14-Methoxy-4,11-dimethyl-5-(oxan-4-yl)-8-oxa-2,5,6,12,16, 17-hexaazatricyclo[11.3.1.0^3,7]heptadeca-1(16),3,6,13(17),14-pentaene], the IC50 was ≤ 10 µM.

Turning to `Cc1c2c(nn1CCN1CCC(F)(F)C1)OCCC(C)Nc1nc(ncc1Cl)N2` (single isomer, unassigned) [E214, 14-Chloro-5-[2-(3,3-difluoropyrrolidin-1-yl)ethyl]-4,11-dimethyl-8-oxa-2,5,6,12,16,17-hexaazatricyclo [11.3.1.0^3,7]heptadeca-1(16),3,6,13(17),14-pentaene], the IC50 is ≤ 10 µM.

In the case of `COC1CNc2nc(ncc2C(F)(F)F)Nc2c(nn(C3CCOCC3)c2C)OC1` (single isomer, unassigned) [E120, 10-methoxy-4-methyl-5-(oxan-4-yl)-14-(trifluoromethyl)-8-oxa-2,5,6,12,16,17-hexaazatricyclo[11.3.1.0^3,7] heptadeca-1(16),3,6,13(17),14-pentaene], the IC50 was ≤ 10 µM.

For `Cc1c2c(nn1C1COCCC1(F)F)OCC[C@@H](C)Nc1nc(ncc1Cl)N2` (single isomer, unassigned) [E304], the IC50 was ≤ 0.1 µM.

`Cc1c2c(nn1C1CCOCC1)OCC(C)C(C)Nc1nc(ncc1Cl)N2` (single isomer, unassigned) [E33, 14-chloro-4,10,11-trimethyl-5-(oxan-4-yl)-8-oxa-2,5,6,12,16,17-hexaazatricyclo [11.3.1.0^3,7]heptadeca-1(16),3,6,13(17),14-pentaene]: the half-inhibitory concentration (IC50) is ≤ 10 µM.

As to `Cc1c2c(nn1C1CCC(N3C[C@H]4C[C@@H]3CO4)CC1)OCCC(C)Nc1nc(ncc1Cl)N2` (single isomer, unassigned) [E58], the IC50 is ≤ 0.1 µM.

Turning to `COCC1CCOc2nn(C3CCOCC3F)c(C)c2Nc2ncc(Cl)c(n2)N1` (single isomer, unassigned) [E352, 14-Chloro-5-(3-fluorooxan-4-yl)-11-(methoxymethyl)-4-methyl-8-oxa-2,5,6,12,16,17-hexaazatricyclo [11.3. 1.0^3,7]heptadeca-1(16),3,6,13(17),14-pentaene], the IC50 is ≤ 0.1 µM.

Consider `Cc1c2c(nn1C1CCOCC1)OCCC(C)(C)Nc1nc(ncc1Cl)N2` [E299, 14-Chloro-4,11,11-trimethyl-5-(oxan-4-yl)-8-oxa-2,5,6,12,16,17-hexaazatricyclo[11.3.1.0^3,7]heptadeca-1(16),3,6,13(17),14-pentaene], for which the 50% inhibitory concentration (IC50) was ≤ 10 µM.

With `Cc1c2c(nn1C1(C(F)(F)F)CCOCC1)OCC[C@@H](C)Nc1nc(ncc1Cl)N2` [E419, (11R)-14-Chloro-4,11-dimethyl-5-[4-(trifluoromethyl)oxan-4-yl]-8-oxa-2,5,6,12,16,17-hexaazatricyclo[11.3.1.0^3,7]heptadeca-1(16),3,6,13(17),14-pentaene], the IC50 was ≤ 0.1 µM.

`Cc1c2c(nn1C1(C(F)(F)F)CCOCC1)OCCCNc1nc(ncc1Cl)N2` [E418, 14-Chloro-4-methyl-5-[4-(trifluoromethyl)oxan-4-yl]-8-oxa-2,5,6,12,16,17-hexaazatricyclo[11.3.1.0^3,7]heptadeca-1(16),3,6,13(17),14-pentaene]: the IC50 is ≤ 0.1 µM.

As to `Cc1c2c(nn1C1CCOCC1)OCCC(C(F)F)Nc1nc(ncc1Cl)N2` (single isomer, unassigned) [E89, 14-chloro-11-(difluoromethyl)-4-methyl-5-(oxan-4-yl)-8-oxa-2,5,6, 12,16,17-hexaazatricyclo[11.3.1.0^3,7]heptadeca-1(16),3,6,13(17),14-pentaene], the concentration for half-maximal inhibition (IC50) was ≤ 10 µM.

`Cc1c2c(nn1C(C)(C)C#N)OCC[C@@H](C(C)C)Nc1nc(ncc1Cl)N2` [E323, 2-[(11S)-14-Chloro-4-methyl-11-(propan-2-yl)-8-oxa-2,5,6,12, 16,17-hexaazatricyclo[11.3.1.0^3,7]heptadeca-1(16),3,6,13(17),14-pentaen-5-yl]-2-methylpropanenitrile]: the half-maximal inhibitory concentration (IC50) was ≤ 10 µM.
